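Each compound was tested at five concentrations against cells in 96-well plates for 48 hours. GI50 = concentration required for 50% inhibition of growth. TGI: concentration producing complete growth inhibition.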 Where only a bound is given, the exact number is not on record here.

These results are taken from PubChem BioAssay (NCI).

Among the test systems are ACHN renal; COLO 205 colon; IGROV1 ovarian; HCT-116 colon; CCRF-CEM leukemia; UO-31 renal; K-562 leukemia; 786-0 renal; HL-60(TB) leukemia; SNB-19 CNS.
Assay in all cases: NCI anticancer screen, dose series, 48 h

For the compound `COc1cc(C2CC(c3cc(Cl)c(C)cc3O)=NN2c2ccc(S(N)(=O)=O)cc2)cc(OC)c1OC` (stereo not given), the GI50 in the assay with ACHN renal was 2780 nM; with COLO 205 colon, 1720 nM; in the assay with IGROV1 ovarian it was 2.23 µM; with HCT-116 colon it was 1630 nM; with CCRF-CEM leukemia, 4510 nM; with UO-31 renal, 2190 nM. For the same compound, the GI50 in the assay on K-562 leukemia is 3.22 µM; in the assay with 786-0 renal it was 2210 nM; in the assay with HL-60(TB) leukemia, 2.95 µM; in the assay on SNB-19 CNS, 4.61 µM. Besides, the TGI in the assay on ACHN renal is 8.33 µM; in the assay with COLO 205 colon, 3.09 µM; in the assay on IGROV1 ovarian, 5.54 µM; in the assay with HCT-116 colon, 2.98 µM; in the assay with CCRF-CEM leukemia, > 100 µM; in the assay with UO-31 renal it was 28.9 µM. Moreover, the TGI in the assay on K-562 leukemia came out at 30.9 µM; in the assay with 786-0 renal, 4.29 µM; with HL-60(TB) leukemia, 14.8 µM; in the assay on SNB-19 CNS, 23.9 µM.

As to `C=C(C)[C@@H]1CC[C@@H]2C(=CC[C@]3(C)C([C@H](C)CC/C=C(/C)C(=O)O)CC[C@@]23C)[C@@]1(C)CCC(=O)O` (stereo not given in full), the TGI with ACHN renal stood at 36.7 µM; in the assay with COLO 205 colon it was 39.9 µM; in the assay with IGROV1 ovarian, 88.8 µM; with HCT-116 colon, 43.7 µM; with CCRF-CEM leukemia, 53.7 µM; with UO-31 renal, 30.7 µM. Further, the TGI with K-562 leukemia was > 100 µM; in the assay on 786-0 renal, 43.9 µM; with HL-60(TB) leukemia, 72.5 µM; in the assay on SNB-19 CNS, > 100 µM.

Consider `COc1ccc(C(=O)C(CN(C)C)c2ccccc2)cc1` (stereo not given), for which the GI50 in the assay with ACHN renal was 2110 nM; in the assay on COLO 205 colon, 2260 nM; in the assay on IGROV1 ovarian, 2.18 µM; in the assay with HCT-116 colon, 707 nM; in the assay with CCRF-CEM leukemia, 1840 nM; in the assay on UO-31 renal, 1430 nM. The GI50 in the assay with K-562 leukemia is 4.17 µM; with 786-0 renal, 1620 nM; with HL-60(TB) leukemia, 5.54 µM; with SNB-19 CNS it was 11.1 µM. The TGI in the assay with ACHN renal worked out at 4.95 µM; in the assay on COLO 205 colon, 4.21 µM; in the assay on IGROV1 ovarian, 5.74 µM; in the assay on HCT-116 colon, 1.95 µM; in the assay with CCRF-CEM leukemia it was 11.9 µM; in the assay with UO-31 renal, 2.74 µM. Further, the TGI is > 100 µM with K-562 leukemia, 3.01 µM in the assay on 786-0 renal, > 100 µM in the assay with HL-60(TB) leukemia and 23.1 µM in the assay on SNB-19 CNS.

Take `COC(=O)C1=C(C)NC(C)=C(C(=O)OC)C1c1ccccc1[N+](=O)[O-]`: the GI50 with ACHN renal was 76900 nM; in the assay with COLO 205 colon it was 89000 nM; in the assay with IGROV1 ovarian, 57.2 µM; with HCT-116 colon, > 100000 nM; with CCRF-CEM leukemia it was > 100000 nM; in the assay on UO-31 renal it was 50000 nM. The GI50 is 78.8 µM with K-562 leukemia, > 100000 nM in the assay on 786-0 renal, 31.7 µM in the assay on HL-60(TB) leukemia and > 100 µM with SNB-19 CNS. Besides, the TGI with ACHN renal, in the assay with COLO 205 colon, in the assay on IGROV1 ovarian, in the assay with HCT-116 colon, with CCRF-CEM leukemia and with UO-31 renal was > 100 µM in each case. For the same compound, the TGI in the assay with K-562 leukemia, with 786-0 renal, with HL-60(TB) leukemia and in the assay on SNB-19 CNS was > 100 µM in each case.

As for `CCOC(=O)CCC(NC(=O)c1ccc(Nc2nc3cc(N)cc(N)c3nc2-c2ccccc2)cc1)C(=O)OCC` (stereo not given), the GI50 in the assay on ACHN renal was > 35900 nM; in the assay on COLO 205 colon, > 29700 nM; in the assay with IGROV1 ovarian, 22.6 µM; in the assay on HCT-116 colon, > 38700 nM; in the assay on CCRF-CEM leukemia it was 5150 nM; in the assay with UO-31 renal, > 46600 nM. The GI50 is 42.5 µM in the assay on K-562 leukemia, > 42300 nM in the assay on 786-0 renal, 9.62 µM in the assay with HL-60(TB) leukemia and > 46.4 µM in the assay with SNB-19 CNS. The TGI was > 68.6 µM in the assay on ACHN renal; > 100 µM with COLO 205 colon; > 94.7 µM in the assay on IGROV1 ovarian; > 71.6 µM in the assay on HCT-116 colon; > 100 µM with CCRF-CEM leukemia; > 87.1 µM in the assay with UO-31 renal. The TGI was > 100 µM in the assay on K-562 leukemia, > 60.9 µM with 786-0 renal, 50.7 µM in the assay with HL-60(TB) leukemia and > 100 µM in the assay on SNB-19 CNS.

As for `O=C1/C(=C/c2ccccc2)CN(C(=O)Oc2ccccc2)C/C1=C\c1ccccc1`, the TGI with ACHN renal was > 100 µM; in the assay on COLO 205 colon, > 100 µM; with IGROV1 ovarian, 83.2 µM; in the assay with HCT-116 colon it was 28.7 µM; in the assay with CCRF-CEM leukemia, 23.9 µM; in the assay with UO-31 renal it was 88.9 µM. Moreover, the TGI with K-562 leukemia was 22.1 µM; with 786-0 renal, 49.1 µM; with HL-60(TB) leukemia, 5.78 µM; in the assay with SNB-19 CNS, 40.9 µM.

In the case of `Nc1ccc(Sc2ccc3c4c2cccc4c(=O)n2c4ccccc4nc32)cc1`, the GI50 in the assay with ACHN renal was 2370 nM; in the assay with COLO 205 colon it was 7240 nM; with IGROV1 ovarian, 3.9 µM; in the assay with HCT-116 colon, 5050 nM; in the assay with CCRF-CEM leukemia, 2350 nM; with UO-31 renal, 2430 nM. The GI50 in the assay on K-562 leukemia is 4.93 µM; in the assay on 786-0 renal, 3340 nM; in the assay on HL-60(TB) leukemia, 3.71 µM; in the assay with SNB-19 CNS, 6.17 µM. Besides, the TGI in the assay with ACHN renal was 10.2 µM; in the assay with COLO 205 colon, 27.2 µM; with IGROV1 ovarian it was 32 µM; in the assay with HCT-116 colon, 26.7 µM; in the assay on CCRF-CEM leukemia, > 100 µM; in the assay with UO-31 renal, 18.7 µM. The TGI was > 100 µM with K-562 leukemia, 10.4 µM in the assay on 786-0 renal, 12 µM in the assay on HL-60(TB) leukemia and > 100 µM in the assay on SNB-19 CNS.

For `O=C(Nc1ccc(Oc2cccc(Cl)c2)c(Cl)c1)c1cccnc1`, the GI50 with ACHN renal is 4060 nM; with COLO 205 colon it was 1390 nM; with IGROV1 ovarian it was 2.76 µM; in the assay with HCT-116 colon it was 2110 nM; in the assay with CCRF-CEM leukemia it was 1890 nM; in the assay on UO-31 renal, 3630 nM. The GI50 was 0.255 µM in the assay on K-562 leukemia, 2690 nM in the assay with 786-0 renal, 1.51 µM in the assay with HL-60(TB) leukemia and 3.15 µM with SNB-19 CNS. The TGI in the assay on ACHN renal is > 50 µM; in the assay with COLO 205 colon it was 8.1 µM; in the assay with IGROV1 ovarian it was > 50 µM; with HCT-116 colon, > 50 µM; in the assay with CCRF-CEM leukemia, > 50 µM; with UO-31 renal, 30 µM. The TGI in the assay on K-562 leukemia is > 50 µM; with 786-0 renal it was 11.6 µM; in the assay on HL-60(TB) leukemia it was 6.16 µM; in the assay on SNB-19 CNS, > 50 µM.
